Assay results taken from patent US9795672B2, “Treatment with anti-VEGF antibodies” (Genentech, Inc., priority 2003, dated 2017).
Marks after values point to notes of the source that are not given here.

What was measured:
[1] = test system: metastatic colorectal cancer; assay: Phase II randomized trial, bevacizumab added to bolus 5-FU/LV, first-line, non-optimal candidates for irinotecan: efficacy and quality of life; format: in vivo, human
Text: Patients with histologically confirmed, previously untreated, measurable metastatic colorectal cancer were eligible if, in the judgment of the investigator, they were not optimal candidates for first-line irinotecan-containing therapy and had at least one of the following characteristics: age above 65 years, ECOG PS of 1 or 2, serum albumin equal or less than 3.5 g/dL, or prior radiotherapy to abdomen or pelvis. […] All patients provided written informed consent for their participation.
A dynamic randomization algorithm was utilized to achieve balance overall and within each of the following categories: study center, baseline ECOG performance status (0 vs. ≧1), site of primary disease (colon vs. rectum), and number of metastatic sites (1 vs. >1). The 5-FU/LV treatment, comprising LV 500 mg/m^2 over 2 hours and 5-FU 500 mg/m^2 as a bolus midway through the LV infusion (Roswell Park regimen; Petrelli et al. (1989) J. Clin. Oncol. 7:1419-1426), was administered weekly for the first 6 weeks of each 8-week cycle. Chemotherapy was continued until study completion (96 weeks) or disease progression. […] At the time of disease progression, patients were unblinded to their treatment assignment and could receive any second-line treatment at the discretion of the investigator. […] After completing the study, patients were followed for any subsequent treatment and survival every 4 months until death, loss to follow-up, or termination of the study.
Patients underwent an assessment of tumor status at baseline and at completion of every 8-week cycle using appropriate radiographic techniques, typically spiral CT scanning. Tumor response, or progression, was determined by both the investigator and an independent radiology facility (IRF) utilizing the Response Evaluation Criteria in Solid Tumors. Therasse et al. (2000). The IRF assessment was performed without knowledge of the treatment assignment or investigator assessment. In addition, patients completed the Functional Assessment of Cancer Therapy—Colorectal (FACT-C), Version 4, a validated instrument for assessing quality of life (QOL) in colorectal cancer patients, at baseline and prior to each treatment cycle until disease progression. Ward et al. (1999) Qual. Life Res. 8:181-195.
The primary outcome measure was duration of overall survival. Secondary outcome measures included progression-free survival, objective response rate (complete and partial), response duration, and change in the FACT-C QOL score. Survival duration was defined as the time from randomization to death. For patients alive at the time of analysis, duration of survival was censored at the date of last contact. Progression-free survival was defined as the time from randomization to the earlier of disease progression or death on study, defined as death from any cause within 30 days of the last dose of study drug or chemotherapy. For patients alive without disease progression at the time of analysis, progression-free survival was censored at their last tumor assessment, or day 1 (the first day of study treatment) if no postbaseline assessment was performed. In the analysis of objective response, patients without tumor assessments were categorized as nonresponders. Disease progression and response analyses were based on the IRF assessments. Change in quality of life was analyzed as time to deterioration in QOL (TDQ), defined as the length of time from randomization to a the earliest of a ≧3-point decrease from baseline in colon-cancer specific FACT-C subscale score (CCS), disease progression, or death on study. TDQ was also determined for the TOI-C (sum of CCS, physical and functional well-being) and total FACT-C for changes from baseline of 7 and 9 points, respectively.
A two-tailed, log-rank test at the 0.05 level of significance with 80% power and two interim analyses were assumed in the calculations. Interim analyses were conducted by an unblinded, independent Data Monitoring Committee (DMC).

[2] = test system: metastatic colorectal cancer; assay: Phase II randomized trial, bevacizumab added to bolus 5-FU/LV: safety; format: in vivo
Description: Safety was assessed from reports of adverse events, laboratory test results, and vital sign measurements. Adverse events and abnormal laboratory results were categorized using the National Cancer Institute Common Toxicity Criteria (NCI-CTC), Version 2.
A two-tailed, log-rank test at the 0.05 level of significance with 80% power and two interim analyses were assumed in the calculations. Interim analyses were conducted by an unblinded, independent Data Monitoring Committee (DMC). A safety interim analysis was conducted after 44 deaths and a second safety and efficacy interim analysis was conducted after 89 deaths. The interim efficacy analysis was governed by a formal group sequential stopping rule based on an O'Brien-Fleming spending function. Kaplan-Meier methodology was applied to estimate the median survival, progression free survival, and duration of response time for each treatment group. […] A two-sided stratified log rank test was used to compare the two groups. Stratified analyses included baseline ECOG performance status, site of primary disease, and the number of metastatic sites. Objective response rates were compared by the Chi-squared test. As exploratory analyses, the Cox proportional hazards model was used to estimate the effect of risk factors on modifications of treatment effect for duration of survival and progression-free survival. Efficacy analyses were performed on the intent-to-treat population, defined as all randomized patients. Safety analyses included all patients who received at least one dose of study drug.

CRC = settings: retrospective subset analysis; cited from earlier work
[3] = test system: metastatic colorectal cancer; settings: patients who progressed following 5-FU therapy; cited from earlier work
[4] = test system: metastatic colorectal cancer; assay: Phase III randomized trial, bevacizumab added to bolus IFL, first-line: efficacy; format: in vivo, human; settings: for Overall response rate: complete and partial responses, RECIST; for Median duration of response: in vivo; for Progression-free survival: median; for Median survival: overall survival, primary end point, bevacizumab 5 mg/kg every 2 wk or placebo with IFL
Text: The trial enrolled over 900 patients with histologically confirmed, previously untreated, bi-dimensionally measurable metastatic colorectal cancer.
Eligible patients had histologically confirmed metastatic colorectal carcinoma, with bidimensionally measurable disease. Other inclusion criteria included an age of at least 18 years, an Eastern Cooperative Oncology Group (ECOG) performance status of 0 or 1 (Oken et al. (1982) Am. J. Clin. Oncol. 5:649-55), a life expectancy of more than three months, and written informed consent. Adequate hematologic, hepatic, and renal function (including urinary excretion of no more than 500 mg of protein per day) was also required.
Exclusion criteria included prior chemotherapy or biologic therapy for metastatic disease (adjuvant or radiosensitizing use of fluoropyrimidines with or without leucovorin or levamisole more than 12 months before study entry was permitted), receipt of radiotherapy within 14 days before the initiation of study treatment, major surgery within 28 days before the initiation of study treatment, clinically significant cardiovascular disease, clinically detectable ascites, pregnancy or lactation, regular use of aspirin (more than 325 mg per day) or other nonsteroidal […] agents, preexisting bleeding diatheses or coagulopathy or the need for full-dose anticoagulation, and known central nervous system metastases.
Eligible patients were assigned to treatment with the use of a dynamic randomization algorithm that was designed to achieve overall balance between groups; randomization was stratified according to study center, baseline ECOG performance status (0 vs. 1), site of primary disease (colon vs. rectum), and number of metastatic sites (one vs. more than one).
Tumor responses and progression were determined with the use of the Response Evaluation Criteria in Solid Tumors. Therasse et al. (2000) J. Natl. Cancer Inst. 92:205-16. […] No crossovers were allowed in the group given IFL plus placebo.
Bevacizumab (or placebo) was administered concomitantly with chemotherapy. […] Standard intracycle and intercycle dose modifications of irinotecan and fluorouracil (according to the package insert)’ were permitted in patients with treatment-related adverse events. The doses of leucovorin and bevacizumab were not altered.
After the baseline evaluation, tumor status was assessed every 6 weeks for the first 24 weeks of the study and then every 12 weeks for the remainder of therapy. All complete and partial responses required confirmation at least four weeks after they were first noted.
The primary outcome measure was the duration of overall survival; survival was measured without regard to subsequent treatments. There was no crossover between groups, however. Survival analysis techniques such as the Kaplan-Meier method, log-rank test, and Cox proportional hazards model were used. Secondary outcome measures were progression-free survival, objective response rates (complete and partial responses), the duration of responses, and the quality of life.
For patients who were alive at the time of analysis, data on survival were censored at the time of the last contact. […] For patients without disease progression at the time of the final analysis, data on progression-free survival were censored at the last assessment of tumor status or on day 0 if no further assessment was performed after baseline. Patients without adequate follow-up data were categorized as having no response.
All calculations were performed with the log-rank test and involved two-sided P values, with an alpha value of 0.05, a statistical power of 80 percent, and one interim analysis of efficacy.
(§1) Efficacy analyses were performed according to the intention-to-treat principle. Safety analyses included all patients who received at least one dose of study medication.

[5] = test system: metastatic colorectal cancer; assay: Phase III randomized trial, bevacizumab added to bolus IFL: safety (adverse events, NCI Common Toxicity Criteria v2); format: in vivo
Description: Safety was assessed on the basis of reports of adverse events, laboratory-test results, and vital sign measurements. Adverse events were categorized according to the Common Toxicity Criteria of the National Cancer Institute, version 2, in which a grade of 1 indicates mild adverse events, a grade of 2 moderate adverse events, a grade of 3 […] adverse events, and a grade of 4 life-threatening adverse events.
as §1

[6] = addition of bevacizumab compared with 5-FU/LV alone

Question: Which results are given for “5-FU/LV/Bevacizumab: 5-fluorouracil and leucovorin (Roswell Park regimen) given with bevacizumab 5 mg/kg every 2 weeks”?
Answer: Median time to deterioration in QOL (TDQ), CCS score ([1]; FACT-C colon-cancer specific subscale): 3.1 months; Overall response rate ([1]; IRF assessment): 26.0%; Duration of response ([1]; median): 9.2 months; Progression-free survival ([1]; median, IRF assessment): 9.2 months; Median survival ([1]; overall survival, primary endpoint, intent-to-treat, bevacizumab 5 mg/kg every 2 weeks or placebo with 5-FU/LV (Roswell Park)): 16.6 months; Complete response ([1]; part of overall response rate): 0%; Partial response ([1]; part of overall response rate): 26.0%; Median TDQ, TOI-C ([1]; secondary TDQ measure): 3.2 months; Median TDQ, total FACT-C ([1]; secondary TDQ measure): 3.6 months; 60-day all-cause mortality ([2]; in vivo): 5.0%; Arterial thrombotic events, number of patients ([2]; in vivo): 10 patients; Bowel perforation event, number of patients ([2]; in vivo): Two; Incidence of arterial thrombotic events ([2]; in vivo): 10%; Proteinuria of any grade ([2]; in vivo): 38%; Total grade 3 and 4 toxicities ([2]; safety population): 87%; Median survival, subset aged ≧65 years (CRC): 17.7 months; Median survival, subset with baseline PS 1 or 2 (CRC): 15.2 months; Median survival, subset with serum albumin<3.5 (CRC): 14.1 months

Question: For `CCc1c2c(nc3ccc(OC(=O)N4CCC(N5CCCCC5)CC4)cc13)-c1cc3c(c(=O)n1C2)COC(=O)[C@]3(O)CC` [irinotecan], which “Prolongation of survival vs best supportive care” value [3] is on record?
Answer: 2.8 month

Question: And the “Prolongation of survival vs infusional 5-FU” value [3]?
Answer: 2.2 month

Question: What does the source list for “IFL plus Bevacizumab: regimen of irinotecan, fluorouracil and leucovorin (IFL) given with bevacizumab 5 mg/kg every 2 wk”?
Answer: Absolute improvement in the response rate ([4]; IFL plus bevacizumab vs IFL alone): 10%; Reduction in the risk of death ([4]; bevacizumab group vs IFL plus placebo): 34%; Overall response rate [4]: 44.8%; Median duration of response [4]: 10.4 mo; One-year survival rate ([4]; intention-to-treat): 74.3%; Progression-free survival ([4]; intention-to-treat): 10.6 mo; Median survival ([4]; intention-to-treat): 20.3 mo; Complete response ([4]; part of overall response rate): 3.7%; Partial response ([4]; part of overall response rate): 41.0%; Median duration of overall survival, subgroup with second-line oxaliplatin ([4]; patients who received second-line treatment with oxaliplatin): 25.1 months; Adverse event leading to hospitalization ([5]; in vivo): 44.9%; Any grade 3 or 4 adverse event ([5]; in vivo): 84.9** percent; Any thrombotic event ([5]; in vivo): 19.4%; Cases of grade 4 bleeding ([5]; in vivo): three; Deep thrombophletitis ([5]; in vivo): 8.9%; Gastrointestinal perforation ([5]; in vivo): 1.5%; Gastrointestinal perforation, number of patients ([5]; in vivo): six; Grade 3 or 4 bleeding ([5]; in vivo): 3.1%; Grade 3 or 4 leukopenia ([5]; in vivo): 37.0%; Hypertension, Any ([5]; in vivo): 22.4** percent; Incidence of arterial thrombotic events ([5]; in vivo): 3.3%; Proteinuria, Any ([5]; in vivo): 26.5%; Proteinuria, Grade 2 ([5]; in vivo): 3.1%; Proteinuria, Grade 3 ([5]; in vivo): 0.8%; Pulmonary embolus ([5]; in vivo): 3.6%; Adverse event leading to death ([5]; incidence): 2.6%; Death within 60 days ([5]; incidence): 3.0%

Question: Which “Increase in the median duration of survival attributable to bevacizumab” value ([4]; IFL plus bevacizumab vs IFL plus placebo) does the source give for “bevacizumab: recombinant humanized anti-VEGF monoclonal antibody generated according to Presta et al. (1997)” here?
Answer: 4.7 months

Question: And the Overall response rate [4]?
Answer: 44.8%

Question: And the “Median duration of response” value [4]?
Answer: 10.4 mo

Question: What about the Progression-free survival ([4]; intention-to-treat) of the same compound?
Answer: 10.6 mo

Question: And the Median survival ([4]; intention-to-treat)?
Answer: 20.3 mo

Question: And the “Effect on quality of life” value ([1]; FACT-C)?
Answer: no detrimental effect

Question: What about the “Prolongation of median survival” value [1, 6] of the same compound?
Answer: 3.7 months

Question: What about the “Prolongation of progression-free survival” value [1, 6] of the same compound?
Answer: 3.7 months

Question: What about the “Prolongation of response duration” value [1, 6] of the same compound?
Answer: 2.4 months
